In patent EP0723771A2, “Agent and process for permanent hair waving” (Wella Aktiengesellschaft, priority 1995, dated 1996):

Details: lower pH values (pH = 7 or 8); conclusion from Tabelle 1
Procedure: Zum Vergleich der Wellwirksamkeit wurden an blondierten Haarsträhnen aus mitteleuropäischem Haar Wellstabilitäten ermittelt. Hierzu wurden 16,5 Zentimeter lange, aus etwa 100 Haaren bestehende Haarsträhnen auf Wickler mit einem Innendurchmesser von 3 Millimetern gewickelt und mit einer 87 mmol Reduktionsmittel pro 100 g Lösung enthaltenden, auf den jeweiligen pH-Wert eingestellten, Reduktionsmittellösung bei 50 Grad Celsius 20 Minuten lang behandelt, wobei eine Menge von 1,2 ml Reduktionsmittellösung pro Gramm Haarsträhne verwendet wurde.
Anschließend wurde das Haar mit einer 3-prozentigen wäßrigen Wasserstoffperoxidlösung oxidativ nachbehandelt, getrocknet und sodann 4 Stunden lang in Wasser ausgehängt. Im Anschluß hieran wurde die Wellstabilität bestimmt.
Die Wellstabilitäten wurden hierbei nach der folgenden Formel ermittelt: [formula] I0 = Gesamtlänge der nicht umgeformten, gestreckten Strähne (16,5 Zentimeter) It = Länge der abgewickelten, ausgehängten Strähne nach 240 Minuten I1 = Länge der umgeformten, aufgewickelten Strähne bei einem Wickelinnendurchmesser von 3 mm (I1 = 35 Millimeter)
Als Reduktionsmittel wurden Cysteamin (Formel (I) mit R = H) und N-Mesylcysteamin (Formel (I) mit R = SO2CH3) sowie als Vergleichsstandard eine auf pH = 9 eingestellte Glycerinmonothioglycolat-Lösung (Wellstabilität = 100 %) verwendet. […]

Structure (SMILES): CS(=O)(=O)NCCS [R = -SO2-CH3, N-2-Mercaptoethylmethansulfonsäureamid]
- Wellwirksamkeit gegenüber Cysteamin: signifikant höhere Wellwirksamkeit
